Test results taken from ChEMBL document CHEMBL3734721 (J Med Chem, 2015).

Key:
[1] = target: Cytochrome P450 2C19 (Homo sapiens, UniProt P33261); assay: Inhibition of human CYP2C19 by LC-MS analysis; assay type: ADME
[2] = Ratio of drug level in brain to plasma in Swiss mouse at 5 mg/kg, sc; assay type: ADME, organism-based; conditions: read-out: BPR
[3] = target: 5-hydroxytryptamine receptor 2A (Homo sapiens, UniProt P28223); assay: Antagonist activity at human 5-HT2A receptor expressed in CHO-K1 cells assessed as seretonin-induced calcium level by FDSS assay; assay type: functional, cell-based
[4] = target: T1, Endothelin-1 receptor (Homo sapiens, UniProt P25101); assay: Antagonist activity at human wild-type ETA receptor expressed in CHO-K1 cells assessed as endothelin-1-induced calcium by HTRF assay; assay type: functional, cell-based
T1 sequence (P25101 whole entry): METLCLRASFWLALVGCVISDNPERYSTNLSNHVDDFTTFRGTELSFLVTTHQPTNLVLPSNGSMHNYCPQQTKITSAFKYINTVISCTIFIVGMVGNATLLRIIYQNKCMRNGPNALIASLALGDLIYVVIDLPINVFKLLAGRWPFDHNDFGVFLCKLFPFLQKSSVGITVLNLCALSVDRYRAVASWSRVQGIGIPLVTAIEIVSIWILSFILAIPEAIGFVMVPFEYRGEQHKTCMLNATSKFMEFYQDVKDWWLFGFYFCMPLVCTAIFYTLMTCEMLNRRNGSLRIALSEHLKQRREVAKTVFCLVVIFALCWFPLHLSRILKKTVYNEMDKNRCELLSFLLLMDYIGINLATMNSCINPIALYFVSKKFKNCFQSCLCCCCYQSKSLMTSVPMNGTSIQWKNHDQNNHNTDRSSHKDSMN

[5] = target: T2, Muscarinic acetylcholine receptor M1 (Homo sapiens, UniProt P11229); assay: Agonist activity at human wild-type M1 receptor expressed in CHO-K1 cells assessed as calcium level by FDSS assay; assay type: functional, cell-based
T2 sequence (P11229 whole entry): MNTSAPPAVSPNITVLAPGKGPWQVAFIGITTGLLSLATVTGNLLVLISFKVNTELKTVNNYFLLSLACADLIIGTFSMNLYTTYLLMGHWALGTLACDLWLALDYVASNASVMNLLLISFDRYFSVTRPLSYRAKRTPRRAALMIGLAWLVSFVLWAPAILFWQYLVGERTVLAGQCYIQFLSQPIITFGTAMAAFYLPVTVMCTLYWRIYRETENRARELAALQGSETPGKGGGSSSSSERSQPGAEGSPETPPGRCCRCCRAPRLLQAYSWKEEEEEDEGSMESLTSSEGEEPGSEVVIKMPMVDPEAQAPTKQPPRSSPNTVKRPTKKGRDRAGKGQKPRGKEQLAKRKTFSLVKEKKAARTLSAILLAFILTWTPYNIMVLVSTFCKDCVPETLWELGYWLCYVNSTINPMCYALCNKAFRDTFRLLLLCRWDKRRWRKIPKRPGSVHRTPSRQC

[6] = target: T3, Type-1 angiotensin II receptor (Homo sapiens, UniProt P30556); assay: Agonist activity at human wild-type AGTR1 receptor expressed in CHO-K1 cells assessed as calcium level by FDSS assay; assay type: functional, cell-based
T3 sequence (P30556 whole entry): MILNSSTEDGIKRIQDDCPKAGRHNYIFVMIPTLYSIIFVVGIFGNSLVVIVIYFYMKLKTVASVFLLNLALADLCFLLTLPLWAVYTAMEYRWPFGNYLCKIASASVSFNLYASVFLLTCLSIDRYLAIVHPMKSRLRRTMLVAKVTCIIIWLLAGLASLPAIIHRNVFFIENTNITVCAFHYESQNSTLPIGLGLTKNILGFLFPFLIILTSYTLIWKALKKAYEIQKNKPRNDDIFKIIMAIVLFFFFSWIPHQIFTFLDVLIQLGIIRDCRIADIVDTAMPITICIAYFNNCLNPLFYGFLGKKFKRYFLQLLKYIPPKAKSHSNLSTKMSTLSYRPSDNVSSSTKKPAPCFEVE

[7] = target: T4, Alpha-1A adrenergic receptor (Homo sapiens, UniProt P35348); assay: Antagonist activity at human wild-type alpha 1A receptor expressed in CHO cells assessed as EP-induced calcium by HTRF assay; assay type: functional, cell-based
T4 sequence (P35348 whole entry): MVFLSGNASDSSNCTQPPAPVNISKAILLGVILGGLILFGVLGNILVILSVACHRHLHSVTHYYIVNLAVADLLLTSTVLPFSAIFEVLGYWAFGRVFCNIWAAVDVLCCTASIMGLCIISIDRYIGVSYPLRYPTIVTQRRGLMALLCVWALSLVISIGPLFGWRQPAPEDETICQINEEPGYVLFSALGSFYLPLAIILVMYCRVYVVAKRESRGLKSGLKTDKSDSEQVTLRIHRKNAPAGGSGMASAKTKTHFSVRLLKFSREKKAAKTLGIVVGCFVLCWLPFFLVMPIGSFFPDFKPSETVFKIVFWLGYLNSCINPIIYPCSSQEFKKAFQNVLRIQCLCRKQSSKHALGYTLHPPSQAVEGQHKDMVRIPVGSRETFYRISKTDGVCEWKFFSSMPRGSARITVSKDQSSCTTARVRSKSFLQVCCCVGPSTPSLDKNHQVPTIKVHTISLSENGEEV

[8] = target: T5, Cholecystokinin receptor type A (Homo sapiens, UniProt P32238); assay: Agonist activity at human wild-type CCKA receptor expressed in CHO-K1 cells assessed as calcium level by FDSS assay; assay type: functional, cell-based
T5 sequence (P32238 whole entry): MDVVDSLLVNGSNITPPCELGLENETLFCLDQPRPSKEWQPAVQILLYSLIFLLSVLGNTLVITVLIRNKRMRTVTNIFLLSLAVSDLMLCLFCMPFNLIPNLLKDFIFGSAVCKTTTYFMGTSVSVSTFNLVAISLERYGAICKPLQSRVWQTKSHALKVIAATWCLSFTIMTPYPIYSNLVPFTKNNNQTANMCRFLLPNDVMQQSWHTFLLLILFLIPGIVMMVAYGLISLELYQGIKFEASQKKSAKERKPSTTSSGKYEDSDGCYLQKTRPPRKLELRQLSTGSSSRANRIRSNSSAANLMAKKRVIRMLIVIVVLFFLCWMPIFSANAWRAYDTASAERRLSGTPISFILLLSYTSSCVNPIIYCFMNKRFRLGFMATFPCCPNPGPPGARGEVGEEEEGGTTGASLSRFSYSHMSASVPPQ

[9] = Chemical stability of compound in 0.1N HCL assessed as compound remaining at 10 mg/ml after 1 day; assay type: physicochemical; conditions: read-out: Stability
[10] = Fraction unbound in mouse plasma at 5 uM after 4.5 hrs by LC-MS/MS analysis; assay type: ADME, cell-free
[11] = target: 5-hydroxytryptamine receptor 7 (Homo sapiens, UniProt P34969); assay: Antagonist activity at human wild-type 5-HT7 receptor expressed in HEK cells assessed as seretonin-induced cAMP by HTRF assay; assay type: functional, cell-based, HEK293
Chain of 5-hydroxytryptamine receptor 7 (P34969 whole entry): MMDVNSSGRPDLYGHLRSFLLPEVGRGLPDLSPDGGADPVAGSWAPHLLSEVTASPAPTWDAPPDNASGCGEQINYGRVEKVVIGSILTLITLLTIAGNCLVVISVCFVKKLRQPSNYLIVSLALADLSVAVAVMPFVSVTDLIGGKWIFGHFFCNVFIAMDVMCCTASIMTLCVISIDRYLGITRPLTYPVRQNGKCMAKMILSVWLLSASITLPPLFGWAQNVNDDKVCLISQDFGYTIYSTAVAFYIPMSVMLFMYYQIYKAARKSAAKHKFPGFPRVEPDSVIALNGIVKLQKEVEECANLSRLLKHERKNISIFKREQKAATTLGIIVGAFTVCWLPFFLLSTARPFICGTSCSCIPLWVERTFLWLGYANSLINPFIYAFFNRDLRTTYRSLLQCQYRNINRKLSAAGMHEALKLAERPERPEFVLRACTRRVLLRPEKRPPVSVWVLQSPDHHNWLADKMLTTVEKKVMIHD

Chain of 5-hydroxytryptamine receptor 2A (P28223 whole entry): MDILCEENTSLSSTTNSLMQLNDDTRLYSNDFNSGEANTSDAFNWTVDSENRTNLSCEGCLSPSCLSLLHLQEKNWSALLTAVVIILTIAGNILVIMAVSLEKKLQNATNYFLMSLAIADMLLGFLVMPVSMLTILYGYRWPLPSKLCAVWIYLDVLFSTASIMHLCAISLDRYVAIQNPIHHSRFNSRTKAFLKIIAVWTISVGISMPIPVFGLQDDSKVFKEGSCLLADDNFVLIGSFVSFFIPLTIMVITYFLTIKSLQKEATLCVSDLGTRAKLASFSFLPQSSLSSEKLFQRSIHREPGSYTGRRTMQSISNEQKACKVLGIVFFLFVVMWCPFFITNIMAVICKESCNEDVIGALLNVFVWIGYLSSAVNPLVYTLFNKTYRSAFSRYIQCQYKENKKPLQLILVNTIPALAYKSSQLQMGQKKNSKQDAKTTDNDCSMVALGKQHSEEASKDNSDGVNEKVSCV
Chain of Cytochrome P450 2C19 (P33261 whole entry): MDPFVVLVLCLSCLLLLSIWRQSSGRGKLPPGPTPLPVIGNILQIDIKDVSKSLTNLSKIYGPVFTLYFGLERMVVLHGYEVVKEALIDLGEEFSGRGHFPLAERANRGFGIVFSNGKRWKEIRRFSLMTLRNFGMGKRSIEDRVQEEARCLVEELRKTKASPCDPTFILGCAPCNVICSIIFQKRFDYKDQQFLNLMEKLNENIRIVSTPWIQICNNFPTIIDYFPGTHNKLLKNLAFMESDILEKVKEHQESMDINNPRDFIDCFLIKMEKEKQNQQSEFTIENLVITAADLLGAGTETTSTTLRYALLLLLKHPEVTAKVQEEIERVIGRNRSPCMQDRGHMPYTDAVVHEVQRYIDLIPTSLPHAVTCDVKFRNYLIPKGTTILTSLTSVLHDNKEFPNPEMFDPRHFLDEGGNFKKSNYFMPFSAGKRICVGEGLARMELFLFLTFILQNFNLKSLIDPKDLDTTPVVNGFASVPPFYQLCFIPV

IC50 [1] | Kp [2] | IC50 [3] | IC50 [4] | EC50 [5] | EC50 [6] | IC50 [7] | EC50 [8] | remaining at 24 h, 10 mg/ml [9] | fraction unbound at 4.5 h, 5 µM [10] | IC50 [11] | Compound
> 10 µM | 19 | > 5.01 µM | > 5.01 µM | > 5.01 µM | > 5.01 µM | > 5.01 µM | > 5.01 µM | 0% | 0.21 | > 5.01 µM | CB1C=Cc2c(cccc2OCC(O)CN(C)C)N1 (configuration not stated)
> 10 µM | 13 | > 5.01 µM | > 5.01 µM | > 5.01 µM | > 5.01 µM | > 5.01 µM | > 5.01 µM | 0% | 0.074 | > 5.01 µM | CB1C=Cc2cccc(OCC(O)CNC(C)C)c2N1 (configuration not stated)
